Data published in ChEMBL document CHEMBL3832553, “DailyMed|setid=be8e0025-5726-4965-9510-e7e657687d23 | AVELOX - moxifloxacin hydrochloride tablet, coated|Lake Erie Medical Supply DBA Quality Care Products LLC”.
Where “and” joins values, the source holds several entries; their conditions need not be identical. Equal values may be shown once.

Legend:
Type in all cases: ADME, organism-based
[1] = (§1) Pharmacokinetic parameters for Moxifloxacin hydrochloride following single oral or intravenous administration of 400 mg Moxifloxacin to healthy or patient male and/or female; design: dose 400 mg, route iv, route oral; conditions: human, in vivo, 400 mg, dosed compound id 1, dosed compound name MOXIFLOXACIN, regimen Single dose, tissue Plasma
[2] = test system: Homo sapiens; experiment: as §1; design: dose 400 mg, route iv, route oral; conditions: in vivo, dosed compound id 1, dosed compound name MOXIFLOXACIN, regimen Single dose, study dosing duration 1 hr, tissue Plasma; for Cmax: po
[3] = (§2) Pharmacokinetic parameters for Moxifloxacin hydrochloride following multiple oral administration of 400 mg Moxifloxacin to male Japanese or Caucasian healthy or patient male and/or female; design: dose 400 mg, route iv, route oral; conditions: human, in vivo, 400 mg, dosed compound id 1, dosed compound name MOXIFLOXACIN, regimen Multiple dose, tissue Plasma
[4] = test system: Homo sapiens; experiment: as §2; design: dose 400 mg, route iv, route oral; conditions: in vivo, dosed compound id 1, dosed compound name MOXIFLOXACIN, regimen Multiple dose, tissue Plasma
[5] = Pharmacokinetic parameters for Moxifloxacin hydrochloride following oral administration of Moxifloxacin.; conditions: human, in vivo, dosed compound id 1, dosed compound name MOXIFLOXACIN, tissue Plasma

COc1c(N2C[C@@H]3CCCN[C@@H]3C2)c(F)cc2c(=O)c(C(=O)O)cn(C3CC3)c12.Cl [MOXIFLOXACIN HYDROCHLORIDE]
AUC [1]: 36100 ng·h/mL
Cmax ([1]; po): 3100 ng/mL
AUC ([2]; gender young male and female): 39300 ng·h/mL
Cmax ([2]; gender female): 4500 ng/mL
Cmax ([2]; gender male and female): 4300 ng/mL
Cmax ([2]; gender male): 4400 ng/mL
Cmax ([2]; gender young male and female): 3900 ng/mL
AUC ([3]; gender young male and female, read-out: AUC): 48000 ng·h/mL
Cmax ([3]; gender young male and female, read-out: Cmax): 4500 ng/mL
AUC ([3]; read-out: AUC(0-24)): 47000 ng·h/mL
Cmax ([3]; read-out: Cmax ss): 4100 ng/mL
Cmax ([4]; gender elderly male amd female, study dosing duration 1 hr): 6100 ng/mL
AUC ([4]; gender elderly male): 51800 ng·h/mL
Cmax ([4]; gender elderly male): 3800 ng/mL
Cmax ([4]; gender female, study dosing duration 1 hr): 4600 ng/mL
Cmax ([4]; gender male and female, study dosing duration 1 hr): 4100 ng/mL and 4700 ng/mL
AUC ([4]; gender young female): 49300 ng·h/mL
Cmax ([4]; gender young female): 4200 ng/mL
AUC ([4]; gender young male, study dosing duration 1 hr): 38000 ng·h/mL
AUC ([4]; gender young male): 48200 ng·h/mL
Cmax ([4]; gender young male): 3600 ng/mL
AUC(0-24) [4]: 47000 ng·h/mL
bioavailability [5]: 90%
